Assay results: the NIST ThermoML archive (doi:10.1016/j.jct.2016.08.004)
Numbers after ± are expanded uncertainties.

Assay: mn = molality of the nth substance listed, in mol/kg
Conditions: 101 kPa, Liquid; for viscosity: Capillary tube (Ostwald / Ubbelohde) method; for mass density: Vibrating tube method

Cc1ncc(CO)c(CO)c1O.Cl [5-hydroxy-6-methyl-3,4-pyridinedimethanol hydrochloride] + O
Conditions	mass density, 288.15 K [kg/m3]	mass density, 298.15 K [kg/m3]	mass density, 308.15 K [kg/m3]	mass density, 318.15 K [kg/m3]	viscosity, 288.15 K [mPa·s]	viscosity, 298.15 K [mPa·s]	viscosity, 308.15 K [mPa·s]	viscosity, 318.15 K [mPa·s]
m1 = 0.0202	1000.32 ± 1.1	998.28 ± 1.1	995.25 ± 1.1	991.43 ± 1.1	1.145 ± 0.022	0.8984 ± 0.021	0.7266 ± 0.021	0.6009 ± 0.021
m1 = 0.0365	1001.26 ± 1.1	999.22 ± 1.1	996.18 ± 1.1	992.35 ± 1.1	1.151 ± 0.022	0.9043 ± 0.021	0.7312 ± 0.021	0.6048 ± 0.021
m1 = 0.0529	1002.19 ± 1.1	1000.15 ± 1.1	997.09 ± 1.1	993.26 ± 1.1	1.157 ± 0.022	0.9103 ± 0.021	0.7358 ± 0.021	0.6087 ± 0.021
m1 = 0.0695	1003.11 ± 1.1	1001.07 ± 1.1	997.99 ± 1.1	994.16 ± 1.1	1.163 ± 0.022	0.9163 ± 0.021	0.7404 ± 0.021	0.6127 ± 0.021
m1 = 0.0863	1003.98 ± 1.1	1001.99 ± 1.1	998.89 ± 1.1	995.06 ± 1.1	1.169 ± 0.022	0.9224 ± 0.022	0.7451 ± 0.021	0.6168 ± 0.021
m1 = 0.1032	1004.86 ± 1.1	1002.9 ± 1.1	999.78 ± 1.1	995.96 ± 1.1	1.175 ± 0.022	0.9286 ± 0.022	0.7498 ± 0.021	0.6209 ± 0.021
